The structures appear in SMILES notation.

The target of one test is T1, human MRGPRX2 (Homo sapiens, UniProt Q96LB1).
T1 construct: expressed in transfected cells
T1 sequence (Q96LB1 1-330): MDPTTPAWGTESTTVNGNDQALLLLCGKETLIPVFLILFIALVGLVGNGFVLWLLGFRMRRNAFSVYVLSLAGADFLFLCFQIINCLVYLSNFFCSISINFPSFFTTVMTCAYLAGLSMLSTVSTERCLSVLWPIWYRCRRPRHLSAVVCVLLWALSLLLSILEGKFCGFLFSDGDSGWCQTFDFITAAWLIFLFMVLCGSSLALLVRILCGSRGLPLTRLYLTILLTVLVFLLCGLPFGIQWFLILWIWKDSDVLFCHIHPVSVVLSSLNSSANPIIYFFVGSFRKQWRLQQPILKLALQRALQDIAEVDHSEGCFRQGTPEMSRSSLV
The test is described as follows: MRGPRX2 antagonist activity, IP-One HTRF assay in CHO cells expressing human MRGPRX2 versus Cortistatin-14. The test is classed as cell-based.
Settings: not given
The protocol:
CHO cells stably transfected to express human MRGPRX2 were maintained in an incubator at 37° C. with 5% CO2 and grown in F12 (HAM) media with 10% fetal bovine serum (FBS), 1% Glutamax, 1% penicillin/streptomycin, 800 μg/mL Geneticin (G418), and 300 μg/mL Hygromycin B. Cells were plated in a 384-well assay plate at 20,000 cells per well in 12 μL of Opti-MEM and kept in an incubator overnight. On the day of the assay, compounds solubilized at 10 mM in DMSO were added as a 10-point curve (30 uM final top concentration with 1:3 serial dilutions) using a Tecan D300E digital dispenser. Agonists were diluted in assay buffer (final concentrations of 5.7 mM Tris-HCl, 43 mM NaCl, 50 mM LiCI, pH=8) and 2 μL of the agonist Cortistatin-14 (CPC Scientific, catalog CORT-002) are added to each well. Final concentrations of agonists were […] Cortistatin-14. Final concentrations of DMSO were kept consistent across the plate. Plates were incubated in the dark for 1 hr at 37° C. and then for 1 hr at room temperature. IP-1 standards and HTRF detection reagents were added according to the IP-One—Gq Kit purchased from Cisbio (part number 621PAPEJ) and incubated in the dark for 1 hr at room temperature. The plate was read on a Molecular Devices SpectraMax iD5 plate reader. The HTRF ratio was calculated from the raw data and graphed using GraphPad Prism to calculate an IC50 value for each compound.
The activity ranges are denoted as follows: “+++++” denotes antagonist activity <100 nM; “++++” denotes antagonist activity between 100 and 500 nM; “+++” denotes activity between 501 and 1000 nM; “++” denotes activity between 1001 and 2500 nM; and “+” denotes activity >2500 nM.
For orientation: TR-FRET usually uses a lanthanide donor and a delayed reading to cut background.
The compound `N#Cc1ccc(N[C@H]2CC[C@@H](NC(=O)c3ccc4nccn4c3)CC2)cc1C(F)(F)F` [1-20] gave an IC50 of 100 to 500 nM.
For `N#Cc1ccc(N[C@H]2CC[C@@H](NC(=O)c3c[nH]c4ccccc34)CC2)cc1C(F)(F)F` [1-19], the IC50 is < 100 nM.

Staying with this test, now noted: CHO cells stably expressing human MRGPRX2; versus 0.3 uM Cortistatin-14 agonist; IP-1 HTRF readout; read-out: MRGPR2 Antagonist Activity.
Take `O=C(N[C@H]1CC[C@@H](Nc2cc(C(F)(F)F)nc(C(F)(F)F)c2)CC1)c1ccc(Cl)cc1Cl` [4-32]: the IC50 fell in the range of 501 to 1000 nM.
Still for that read-out and setting: as for `CN1CCCc2cc(C(=O)N[C@H]3CC[C@@H](Nc4cc(C(F)(F)F)nc(C(F)(F)F)c4)CC3)ccc21` [4-21], the figure is 501 to 1000 nM.
Regarding `CN(C)c1ccc(C(=O)N[C@H]2CC[C@@H](Nc3cc(C(F)(F)F)nc(C(F)(F)F)c3)CC2)cc1` [1-2], the IC50 lay within 100 to 500 nM.
As to `COc1ccc(C(=O)N[C@H]2CC[C@@H](Nc3cc(C(F)F)nc(C(F)(F)F)c3)CC2)cc1` [4-43], the IC50 was in the range of 100 to 500 nM.
In the case of `CNc1cc(C(=O)N[C@H]2CC[C@@H](Nc3ccc(C#N)c(C(F)(F)F)c3)CC2)ccn1` [4-66], the IC50 is < 100 nM.
Same read-out and setting: the same measure for `N#Cc1ccc(N[C@H]2CC[C@@H](NC(=O)c3csc(N)n3)CC2)cc1C(F)(F)F` [1-15]: 100 to 500 nM; for `CN1CCN(C(=O)N[C@H]2CC[C@@H](Nc3cc(C(F)(F)F)nc(C(F)(F)F)c3)CC2)CC1` [4-36]: 1000 to 2500 nM.
The same measure, in the same setting: as for `CCn1nccc1C(=O)N[C@H]1CC[C@@H](Nc2cc(C)c(C#N)c(C(F)(F)F)c2)CC1` [5-6], the figure is < 100 nM.
With `N#Cc1ccc(N[C@H]2CC[C@@H](NC(=O)c3ccc(NCC(F)F)cc3)CC2)cc1C(F)(F)F` [4-53], the IC50 is < 100 nM.
`CN(C)c1ccc(C(=O)N[C@H]2CC[C@@H](Nc3ccc(C#N)c(C(F)(F)F)c3)CC2)c(F)c1` [1-13]: the IC50 was in the range of 100 to 500 nM.
`N#Cc1ccc(N[C@H]2CC[C@@H](NC(=O)c3c[nH]c4ccncc34)CC2)cc1C(F)(F)F` [4-63]: the IC50 was < 100 nM.
As for `CCn1nccc1C(=O)N[C@H]1CC[C@@H](Nc2cc(C(F)(F)F)nc(C(F)(F)F)c2)CC1` [4-12], the IC50 was 501 to 1000 nM.
Take `O=C(N[C@H]1CC[C@@H](Nc2cc(C(F)(F)F)nc(C(F)(F)F)c2)CC1)c1cccc2[nH]ccc12` [4-6]: the IC50 lay within 100 to 500 nM.
In the case of `Cc1cc(N[C@H]2CC[C@@H](NC(=O)c3cn(CC(F)F)nc3C)CC2)cc(C(F)(F)F)c1C#N` [5-10], the IC50 was < 100 nM.
On to `O=C(N[C@H]1CC[C@@H](Nc2cc(C(F)(F)F)nc(C(F)(F)F)c2)CC1)c1ccc(Cl)cc1` [4-14], for which the IC50 was in the range of 501 to 1000 nM.
In the case of `N#Cc1ccc(N[C@H]2CC[C@@H](NC(=O)c3cccc4ncsc34)CC2)cc1C(F)(F)F` [1-24], the IC50 fell in the range of 1000 to 2500 nM.
On to `CS(=O)(=O)Nc1cccc(C(=O)N[C@H]2CC[C@@H](Nc3cc(C(F)(F)F)nc(C(F)(F)F)c3)CC2)c1` [4-10], for which the IC50 was 100 to 500 nM.
Consider `CNC(=O)Nc1cccc(C(=O)N[C@H]2CC[C@@H](Nc3cc(C(F)(F)F)nc(C(F)(F)F)c3)CC2)c1` [4-3], for which the IC50 was 100 to 500 nM.
For `CNc1ccc(C(=O)N[C@H]2CC[C@@H](Nc3cc(C(F)(F)F)nc(C(F)(F)F)c3)CC2)cc1` [4-4], the IC50 is 100 to 500 nM.
For the compound `O=C(N[C@H]1CC[C@@H](Nc2cc(C3CC3)nc(C(F)(F)F)c2)CC1)c1ccc(F)cc1` [Example 8, N-(1S, 4S)-[4-[[2-cyclopropyl-6-(trifluoromethyl)-4-pyridyl]amino]cyclohexyl]-4-fluoro-benzamide], the IC50 fell in the range of 1000 to 2500 nM.
For the compound `CN1CCCc2ccc(C(=O)N[C@H]3CC[C@@H](Nc4cc(C(F)(F)F)nc(C(F)(F)F)c4)CC3)cc21` [4-15], the IC50 was in the range of 1000 to 2500 nM.
Turning to `Cc1cc2c(C(=O)N[C@H]3CC[C@@H](Nc4ccc(C#N)c(C(F)(F)F)c4)CC3)ccnc2[nH]1` [4-60], the IC50 was < 100 nM.
Turning to `CN(C)c1nc(N[C@H]2CC[C@@H](NC(=O)c3ccccc3)CC2)cc(C(F)(F)F)n1` [1-10], the IC50 is 501 to 1000 nM.
For the compound `O=C(N[C@H]1CC[C@@H](Nc2cc(C(F)(F)F)nc(C(F)(F)F)c2)CC1)c1ccc(-n2ccnc2)cc1` [4-25], the IC50 was 100 to 500 nM.
On the same count and under the same terms, as for `O=C(N[C@H]1CC[C@@H](Nc2cc(C(F)(F)F)nc(C(F)(F)F)c2)CC1)c1ccc(-n2cnnn2)cc1` [4-30], the figure is 100 to 500 nM; as for `CN(CC(F)F)c1ccc(C(=O)N[C@H]2CC[C@@H](Nc3ccc(C#N)c(C(F)(F)F)c3)CC2)cc1` [4-54], < 100 nM.
Turning to `Cc1cc(N[C@H]2CC[C@@H](NC(=O)c3ccc4nccn4c3)CC2)cc(C(F)(F)F)c1C#N` [2-3], the IC50 was < 100 nM.
Consider `CC1=NN(c2ccc(C(=O)N[C@H]3CC[C@@H](Nc4cc(C(F)(F)F)nc(C(F)(F)F)c4)CC3)cc2)C(=O)C1` [4-33], for which the IC50 was in the range of 100 to 500 nM.
As for `O=C(N[C@H]1CC[C@@H](Nc2cc(C(F)(F)F)nc(C(F)(F)F)c2)CC1)c1ccc(-n2cccn2)cc1` [4-31], the IC50 is 100 to 500 nM.
In the case of `N#Cc1ccc(N[C@H]2CC[C@@H](NC(=O)c3cnn(CC(F)(F)F)c3)CC2)cc1C(F)(F)F` [Example 17, N-((1s,4s)-4-((4-cyano-3-(trifluoromethyl)phenyl)amino)cyclohexyl)-1-(2,2,2-trifluoroethyl)-1H-pyrazole-4-carboxamide], the IC50 is < 100 nM.
As to `N#Cc1ccc(N[C@H]2CC[C@@H](NC(=O)c3cn[nH]c3Cl)CC2)cc1C(F)(F)F` [4-45], the IC50 is < 100 nM.
Consider `O=C(N[C@H]1CC[C@@H](Nc2cc(C(F)(F)F)nc(C(F)(F)F)c2)CC1)c1c[nH]c2ccccc12` [4-22], for which the IC50 lay within 100 to 500 nM.
With `N#Cc1ccc(N[C@H]2CC[C@@H](NC(=O)c3cn[nH]c3C#N)CC2)cc1C(F)(F)F` [4-56], the IC50 is < 100 nM.
On to `COc1ccc(C(=O)N[C@H]2CC[C@@H](Nc3ccc(F)c(C(F)(F)F)c3)CC2)cc1` [2-2], for which the IC50 was 501 to 1000 nM.
As for `N#Cc1ccc(N[C@H]2CC[C@@H](NC(=O)c3cn[nH]c3C3CC3)CC2)cc1C(F)(F)F` [4-46], the IC50 was < 100 nM.
As to `O=C(N[C@H]1CC[C@@H](Nc2cc(C(F)(F)F)nc(C(F)(F)F)c2)CC1)c1cccc(O)c1` [4-28], the IC50 was 100 to 500 nM.
Regarding `COc1cccc(C(=O)N[C@H]2CC[C@@H](Nc3cc(C(F)(F)F)nc(C(F)(F)F)c3)CC2)c1` [4-1], the IC50 fell in the range of 100 to 500 nM.
Consider `CCNc1nc(N[C@H]2CC[C@@H](NC(=O)c3ccc(OC)cc3)CC2)cc(C(F)(F)F)n1` [Example 12, N-(1S,4S)-[4-[[2-(ethylamino)-6-(trifluoromethyl)pyrimidin-4-yl]amino]cyclohexyl]-4-methoxy-benzamide], for which the IC50 was > 2500 nM.
As for `Cc1cc(N[C@H]2CC[C@@H](NC(=O)c3cnn(CC(F)(F)F)c3)CC2)cc(C(F)(F)F)c1C#N` [5-5], the IC50 is < 100 nM.
For the compound `N#Cc1cccc(C(=O)N[C@H]2CC[C@@H](Nc3cc(C(F)(F)F)nc(C(F)(F)F)c3)CC2)c1` [1-4], the IC50 fell in the range of 1000 to 2500 nM.
On to `O=C(N[C@H]1CC[C@@H](Nc2cc(C(F)(F)F)nc(C(F)(F)F)c2)CC1)c1ccc(F)cc1` [1-1], for which the IC50 fell in the range of 100 to 500 nM.
`O=C(N[C@H]1CC[C@@H](Nc2cc(C(F)(F)F)nc(C(F)(F)F)c2)CC1)c1ccc(N2CCCC2)cc1` [4-41]: the IC50 is 100 to 500 nM.
Still for that read-out and setting: the same measure for `O=C(N[C@H]1CC[C@@H](Nc2cc(C(F)(F)F)nc(C(F)(F)F)c2)CC1)c1ccccc1` [example 3, N-((1S,4S)-4-((2,6-bis(trifluoromethyl)pyridin-4-yl)amino)cyclohexyl)benzamide]: 501 to 1000 nM.
On to `N#Cc1ccc(N[C@H]2CC[C@@H](NC(=O)c3ccnc4cn[nH]c34)CC2)cc1C(F)(F)F` [4-58], for which the IC50 was < 100 nM.
With `COc1ccc(C(=O)N[C@H]2CC[C@@H](Nc3cc(C(F)(F)F)nc(N(C)C)n3)CC2)cc1` [Example 16, N-(1S,4S)-[4-[[2-(dimethylamino)-6-(trifluoromethyl)pyrimidin-4-yl]amino]cyclohexyl]-4-methoxy-benzamide], the IC50 lay within 501 to 1000 nM.
In the case of `CNc1ccc(C(=O)N[C@H]2CC[C@@H](Nc3cc(C)c(C#N)c(C(F)(F)F)c3)CC2)cc1` [5-3], the IC50 was < 100 nM.
Still for that read-out and setting: as for `N#Cc1ccc(N[C@H]2CC[C@@H](NC(=O)c3ccc(N4CCOCC4)cc3)CC2)cc1C(F)(F)F` [1-25], the figure is 100 to 500 nM; as for `O=C(N[C@H]1CC[C@@H](Nc2cc(C(F)(F)F)nc(C(F)(F)F)c2)CC1)c1nc2ccccc2[nH]1` [4-35], 1000 to 2500 nM; as for `COc1cccc(C(=O)N[C@H]2CC[C@@H](Nc3ccc(C#N)c(C(F)(F)F)c3)CC2)c1` [1-23], 100 to 500 nM.
Take `CN1CCCc2c(C(=O)N[C@H]3CC[C@@H](Nc4cc(C(F)(F)F)nc(C(F)(F)F)c4)CC3)cccc21` [4-19]: the IC50 was 1000 to 2500 nM.

The values are drawn from patent US11952346B2, “Modulators of mas-related G-protein receptor X2 and related products and methods” (Escient Pharmaceuticals, Inc., priority 2020, dated 2024).
